Measurements as given in patent US7407775B2, “Method for identifying Listeria monocytogenes and culture medium” (Biomerieux S.A., priority 2000, dated 2008).

How the values were obtained:
Listeria species = experiment: Experiment 3: differentiation of Listeria species in liquid medium; assay type: cell-based
Experimental: (§1) In Table 1 above, as in the following Tables, C represents the color of the colonies after incubation, I represents the intensity of the color, and the symbol “-” corresponds to the absence of color or intensity; finally, IT defines the incubation time. It should be noted that the intensity of the color is scored on an arbitrary scale but one which is consistent for all the biological specimens and media tested. This scale is valid for this experiment as well as all those that follow. It can be defined in the following way: • 0 corresponds to no activity, • 0.1 corresponds to a trace of color, • 0.5 corresponds to very pale coloration, • 1 corresponds to clear but low-intensity coloration, • 1.5 corresponds to a degree of coloration intermediate between scores 1 and 2, • 2 corresponds to clear coloration of moderate intensity, • 2.5 corresponds to a degree of coloration intermediate between scores 2 and 3, • 3 corresponds to intense coloration, • 3.5 corresponds to a degree of coloration intermediate between scores 3 and 4, • 4 corresponds to very intense coloration.
These substrates were lyophilized in the wells of API-type strips (Registered Trademark). Before use, the substrates contained in the wells were resuspended in an agar-free Columbia-type inoculation medium. […]
The intensity of the color of the colonies was recorded.

[1] = tested on: Listeria innocua ATCC 33090; experiment: Experiment 1: esterase substrates, same chromogenic marker, fatty acids of different chain lengths; assay type: cell-based; parameters: key: —: the symbol “-” corresponds to the absence of color or intensity; 0 corresponds to no activity; 0.1 corresponds to a trace of color; 0.5 corresponds to very pale coloration; 1 corresponds to clear but low-intensity coloration; 1.5 corresponds to a degree of coloration intermediate between scores 1 and 2; 2 corresponds to clear coloration of moderate intensity; 2.5 corresponds to a degree of coloration intermediate between scores 2 and 3; 3 corresponds to intense coloration; 3.5 corresponds to a degree of coloration intermediate between scores 3 and 4; 4 corresponds to very intense coloration; details: 37° C., substrate 250 mg/l
Experimental: A stock solution of each substrate at a concentration of 40 g/l was made up in a mixture of 40% Dimethylsulfoxide and 60% Polyoxyethylenesorbitan Monolaurate (Tween 20). An appropriate volume was added to three Columbia-type media while cooling to give a final substrate concentration of 250 mg/l. These dishes were divided into three areas and then each area was inoculated with a suspension (density=0.5 McFarland) of microorganisms taken from either the Applicant's own collection or the ATCC. The dishes were incubated for 48 hours at 37° C. The colonies which grew were examined by eye after 24 and 48 hours of incubation. Both the color and the intensity of the color of the colonies were recorded.
as §1

CCCCCCCC(=O)Oc1c[nH]c2ccc(Br)c(Cl)c12 [X-C8, 5-Bromo-4-chloro-3-indolyl octanoate]
differentiation between L. monocytogenes and other species belonging to the same genus (Listeria species): gave a contrast in color

CCCCCCCC(=O)Oc1c[nH]c2ccc(Br)cc12 [Blue-C8, 5-Bromo-3-indolyl octanoate]
C (color of the colonies) ([1]; IT 24 h): gray
I (intensity of the color) ([1]; IT 24 h): 0.3
C (color of the colonies) ([1]; IT 48 h): gray
I (intensity of the color) ([1]; IT 48 h): 0.5

CCCCCCCCCC(=O)Oc1c[nH]c2ccc(Br)cc12 [Blue-C10, 5-Bromo-3-indolyl decanoate]
C (color of the colonies) ([1]; IT 24 h): —
I (intensity of the color) ([1]; IT 24 h): —
C (color of the colonies) ([1]; IT 48 h): gray
I (intensity of the color) ([1]; IT 48 h): 0.3

CCCCCCCCC(=O)Oc1c[nH]c2ccc(Br)cc12 [Blue-C9, 5-Bromo-3-indolyl nonanoate]
C (color of the colonies) ([1]; IT 24 h): —
I (intensity of the color) ([1]; IT 24 h): —
C (color of the colonies) ([1]; IT 48 h): gray
I (intensity of the color) ([1]; IT 48 h): 0.3
